A value given as a limit tells only on which side of the number the result lay.

The target in this experiment is BoNT/A holotoxin (Clostridium botulinum, UniProt P0DPI0).

As to “NH2-Dab(DNP)-R-[Lys(N3)-T-Dab-Pra]-L-Lys(DBCO-STP)-Tz4-G-Aib-L-[Pra-NYRWL-Lys(N3)] [Inh-2-STP]”, the “latest time after exposure with partial rescue” value was ≤ 3 h and the “rescue from internalized BoNT (SNAP-25 cleavage)” value is “partial rescue”.

The values above are taken from patent publication US11723944B2 (priority 2015, dated 2023).
